From US8318801B2, “Cinnamic compounds and derivatives therefrom for the inhibition of histone deacetylase” (Naturewise Biotech & Medicals Corporation, priority 2009, dated 2012)
“Also recorded” adds a separate entry of the source.

Experiments:
[1] = system: SMN2 protein in fibroblast cells derived from SMA patients; settings: after 64 hours of treatment; cited from earlier work
Rat C6 glioma cells = assay: Inhibition of cancer cell growth and change of morphology; assay type: cell-based; settings: Rat C6 glioma cells
Method: (§1) Three cancer cell lines, Rat C6 giloma cells, Human breast cancer MCF-7 cells, and Human lung cancer A549 cells, were cultured in Dulbecco's modified Eagle's medium (DMEM; Gibco) containing 10% fetal bovine serum (FBS) and 1% penicillin/streptomycin. All three cell lines were maintained at 37° C. in a humidified atmosphere of 95% air and 5% CO2. For the experiments, the cells were seeded in 6-well plates. After 24 hours, the cells were treated with different concentrations of the various compounds.
(§2) Five cancer cell lines, Rat C6 giloma cells, Human breast cancer MCF-7 cells, Human glioma Hs683 cells, Human glioblastoma 05-MG cells, and Human lung cancer A549 cells, were cultured in Dulbecco's modified Eagle's medium (DMEM; Gibco) containing 10% fetal bovine serum (FBS) and 1% penicillin/streptomycin, and were kept at 37° C. in a humidified atmosphere of 95% air and 5% CO2. Human breast cancer. MDA-MB-231 cells were cultured in L-15 medium (Gibco) containing 10% fetal bovine serum (FBS), 1% penicillin/streptomycin, and 2 mM glutamine, and were maintained at 37° C. in a humidified atmosphere of 95% air and 0% CO2. For these experiments, the cells were seeded in 6-well plates or a 60-mm dish. After 24 hours, the cells were treated with different concentrations of the various compounds. […] Human glioblastoma 05-MG cells were treated with NBM-C-BCX-OS01 (1.0, 2.0, 4.0 μg/mL) and NBM-C-BMX-OS01 (1.0, 2.0, 4.0 μg/mL) for 72 hours (see FIG. 5(e)). […] The results were counted by a trypan blue exclusion assay (see FIG. 6(b)).

Human glioma Hs683 cells [2] = assay: Inhibition of cancer cell growth; assay type: cell-based; settings: Hs683 cells, 1.25, 2.5, 5.0 μg/mL, 72 hrs (FIG. 5(d))
Method: Their results were counted by a trypan blue exclusion assay (see FIG. 8(e)).
as §2

[3] = system: Human glioblastoma 05-MG cells; assay: Inhibition of cancer cell growth; assay type: cell-based; settings: 05-MG cells, 1.0, 2.0, 4.0 μg/mL, 72 hrs (FIG. 5(e))
Method: as §2

Human glioma Hs683 cells [4] = assay: Cell cycle analysis by flow cytometry (propidium iodide); assay type: cell-based; settings: Hs683 cells, 1.0, 2.0, 4.0 μg/mL, 72 hrs (FIG. 6(e))
Method: Human lung cancer A549 cells, Human glioma Hs683 cells and Human glioblastoma 05-MG cells were seeded 1×10^6 cells in a 100-mm dish. After 24 hours of incubation in DMEM+10% BSA, Human lung cancer A549 cells were treated with NBM-HB-OS01 (2.5, 5.0, 7.5, 10.0 μg/mL) for 24 hours and were treated with NBM-C-BCX-OS01 (2.5, 5.0, 7.5 μg/mL) and NBM-C-BMX-OS01 (2.5, 5, 7.5 μg/mL) for 72 hours. Human glioblastoma 05-MG cells were treated with NBM-C-BCX-OS01 (1.0, 2.0, 4.0 μg/mL) and NBM-C-BMX-OS01 (1.0, 2.0, 4.0 μg/mL) for 72 hours. Human glioma Hs683 cells were treated with NBM-C-BCX-OS01 (1.0, 2.0, 4.0 μg/mL). For cell cycle analysis, cells were fixed in 80% ethanol for 1 hour (or overnight) at −20° C. and then incubated with 2 μg/mL RNase A for 30 minutes at 37° C. Cells were stained with propidium iodide ([…] PI) in PBS and analyzed using a Becton Dickinson flow cytometer, BD FACScan and CellQuest acquisition and analysis programs. […] Human glioma Hs683 cells were treated with NBM-C-BCX-OS01 (1.0, 2.0, 4.0 μg/mL) for 72 hours.

[5] = system: acetyl-Histone H3, acetyl-Histone H4, acetyl-tubulin, p21, CTPS, Gelsolin, Hsp90, acetyl-Hsp90 in Human glioma Hs683 cells; assay: Immunoblotting of histones and HDAC associated proteins; assay type: cell-based; settings: Hs683 cells, 1.0, 2.0, 4.0 μg/mL
Method: Human glioma Hs683 cells were seeded at 5×10^5 cells in a 60-mm dish or 1×10^6 cells in a 100-mm dish. After 24 hours, Human glioma Hs683 cells were treated with different doses of NBM-C-BCX-OS01, NBM-C-BMX-OS01 (1.0, 2.0, 4.0 μg/mL), and vorinostat (SAHA, 5 μM) for 72 hours. Lysates of Hs683 cells were prepared for the immunoblotting of acetyl-Histone H3 (Cell Signaling Technology, Inc.), acetyl-Histone H4 (Upstate), acetyl-tubulin (Sigma Chemical Co.), p21 (BD Pharmingen Technology, Inc.), CTPS (ABNOVA TAIWAN Corporation), Gelsolin (Sigma Chemical Co.), Hsp90 (Cell Signaling Technology, Inc.), acetyl-Hsp90 (ROCKLAND, Inc.) and actin (Sigma Chemical Co.). Proteins were detected by chemiluminescence (ECL, Amersham). […] SAHA was used as a positive control and β-actin as an internal control (see FIG. 7(b)).

[6] = system: Human lung cancer A549 cells; assay: Inhibition of cancer cell growth; assay type: cell-based; settings: 72 hrs, NBM-C-BX-OS01 7.5, others 2.5, 5.0, 7.5 μg/mL (FIG. 5(b))
Method: as §1, §2

[7] = system: human breast cancer MDA-MB-231 cells; assay: Inhibition of cancer cell growth and change of morphology; assay type: cell-based; settings: MDA-MB-231 cells
Method: Their results were counted by a trypan blue exclusion assay (see FIG. 9(f)).
as §2

[8] = system: cyclin D1 in MCF-7 breast cancer cells; settings: cited from earlier work
[9] = system: transgenic mouse model of spinal and bulbar muscular atrophy; settings: cited from earlier work

For `CN(C)c1ccc(C(=O)NCCCCCCC(=O)NO)cc1` [M344], the “up-regulation of SMN2 protein expression” value [1] is given as “up to 7 fold”.
With `COc1ccc(/C=C\C(=O)NO)c(OCc2ccc(Cl)cc2)c1CC=C(C)C` [NBM-C-BCX-OS01, (Z)-2-(4-Chlorobenzoxy)-3-prenyl-4-methoxy-N-hydroxycinamide] the “inhibition of cell growth” value (Rat C6 glioma cells; 24 hrs, NBM-C-BA-OS01 5 μg/mL, others 2.5, 5.0 μg/mL (FIG. 5(a))) was “inhibited the cell growth”, the “inhibition of cell growth, similar to dose-dependent A549 result” value (Rat C6 glioma cells; various concentrations, 24 hrs (FIG. 5(c))) was “the results were similar” and the cell growth inhibition (Human glioma Hs683 cells [2]) was “Cell growth inhibition was observed”. For the same compound, the cell growth inhibition [3] was “Cell growth inhibition was observed”, the “growth arrest in cell cycle analysis” value (Human glioma Hs683 cells [4]) was “arrested the growth; also recorded: could arrest the growth” and the CTPS protein level ([5]; 72 hrs (FIG. 7(a))) was “decreased in a dose-dependent manner”. The Hsp90 protein level ([5]; 72 hrs (FIG. 7(a))) was “decreased in a dose-dependent manner”, the “induction (increase) of acetylated Hsp90 protein” value ([5]; 72 hrs (FIG. 7(a))) was “detected in a dose-dependent manner; also recorded: observed in a dose-dependent manner” and the “induction (increase) of gelsolin protein” value ([5]; 72 hrs (FIG. 7(a))) was “detected in a dose-dependent manner; also recorded: observed in a dose-dependent manner”. The “expression of acetylated Histone H3” value ([5]; 72 hrs (FIG. 7(b))) was “significantly increased in a dose-dependent manner; also recorded: induced in a dose-dependent manner”, the “expression of acetylated Histone H4” value ([5]; 72 hrs (FIG. 7(b))) was “significantly increased in a dose-dependent manner; also recorded: induced in a dose-dependent manner” and the “expression of acetylated tubulin” value ([5]; 72 hrs (FIG. 7(b))) was “significantly increased in a dose-dependent manner; also recorded: induced in a dose-dependent manner”. For the same compound, the “expression of p21” value ([5]; 72 hrs (FIG. 7(b))) was “significantly increased in a dose-dependent manner; also recorded: induced in a dose-dependent manner”, the cell growth inhibition [6] was “induced A549 cells growth inhibition in a dose-dependent manner; also recorded: induced A549 cell growth inhibition in dose-dependent amounts” and the “change of cell morphology” value ([7]; 72 hours (FIG. 6(a))) was “changed the morphology of the cells”. The “inhibition of cell growth” value ([7]; various concentrations, 72 hrs (FIG. 6(a))) was “inhibition of the cell growth of human breast cancer MDA-MB-231 cells was observed; also recorded: inhibited the growth”.
In the case of `CC(/C=C/C(=O)NO)=C\[C@@H](C)C(=O)c1ccc(N(C)C)cc1` [Trichostatin A], the “ubiquitin-dependent cyclin D1 degradation” value [8] is given as “induce ubiquitin-dependent cyclin D1 degradation”.
For `CCCC(=O)[O-].[Na+]` [sodium butyrate], the “effect on phenotypic expression” value [9] is listed as “ameliorates phenotypic expression”.
